The record followed here is PMC9531406 (Clinical cancer research : an official journal of the …, 2020).

Experiment [1] has as its system SSTR2. Briefly: IHC staining of SSTR2 in tumor tissues of treated mice. It is filed as in vivo. To be noted: FTC133 (p=0.023) and AR42J (p=0.016) models; VAC 300 µg/kg intraperitoneal daily for 10 days.
Experiment [2] has as its system SSTR2 expression. Put plainly: SSTR2 expression in AR42J cells after VAC. Format: cell-based, rat. As to conditions: AR42J cell line; 2 mM or 4 mM for 72 h.
The subject of experiment [3] is SSTR2 promoter. Briefly: ChIP assay, histone acetylation at the SSTR2 promoter, FTC133 cells. It is filed as cell-based, human. As to conditions: VAC 4mM, 72h.
In experiment [4] the test system is subcutaneous and metastatic mice models. Briefly: Effect of epigenetic pretreatment on uptake of SST analogs in mice models. It is filed as in vivo. To be noted: for effect on the uptake of ^86Y-DOTA-EB-TATE within the tumor and normal tissues in comparison with control mice: biodistribution, FTC133 and AR42J tumor-bearing mice.
The subject of experiment [5] is SSTR2 expression. Put plainly: SSTR2 expression in thyroid cancer cells after epigenetic modifiers. Format: cell-based, human.
Experiment [6] deals with examined cell lines. Briefly: Growth inhibition / cell cycle after VAC treatment. To be noted: VAC treatment (Supplemental Figure 3). Format: cell-based.
The test system of experiment [7] is AR42J tumors. Briefly: PRRT in AR42J. Format: in vivo. To be noted: AR42J mice model; VAC 300 µg/kg intraperitoneal daily for 10 days.
For experiment [8], the system named is SSTR2 promoter. Briefly: ChIP assay, histone acetylation at the SSTR2 promoter, AR42J cells. It is filed as cell-based, rat. As to conditions: VAC 4mM, 72h, n=4, relative to control.
The subject of experiment [9] is SSTR2 promoter. Briefly: ChIP assay, histone acetylation at the SSTR2 promoter, BCPAP cells. Format: cell-based, human. As to conditions: VAC 4mM, 72h, n=4, relative to control, p<0.001.
The test system of experiment [10] is acetylated histone 3 and acetylated histone 4. Briefly: Global histone acetylation. As to conditions: FTC133, BCPAP, and AR42J cells; VAC 4mM, 72h, n=3. Format: cell-based.
Experiment [11] concerns FTC133 tumors. Briefly: PRRT in FTC133. Format: in vivo. To be noted: FTC133 mice model; VAC 300 µg/kg intraperitoneal daily for 10 days.

Consider `CCCC(CCC)C(=O)O` [VAC, valproic acid], for which, in experiment [1], the “SSTR2 expression in tumor tissues compared with placebo (IHC)” value is recorded as “higher cytoplasmic SSTR2 expression”. Also, the SSTR2 expression result was “significantly upregulated” in [2]; “significantly upregulated” in experiment [5] (FTC133, BCPAP and TT cells, 2 mM or 4 mM for 72 h). In addition, the “increase in H4 acetylation at the SSTR2 promoter” value in experiment [3] (n=4, p<0.001) is 2.4 fold. In [3] (n=4, p<0.05), the “H3 acetylation at the SSTR2 promoter” value was “slightly, but significantly reduced”. Further, the “effect on the uptake of ^86Y-DOTA-EB-TATE within the tumor and normal tissues in comparison with control mice” value in [4] is reported as “Neither VAC nor DEC treatment resulted in any significant difference”. Further, the “effect of VAC treatment on the uptake of the SST analogs” value in experiment [4] (subcutaneous and metastatic mice models, VAC 300 µg/kg intraperitoneal daily for 10 days, PET) was “no significant effect”. Moreover, the “induction of SSTR2 expression in comparison to TAC and DEC” value in experiment [5] (thyroid cancer cells, 72h) is recorded as “more potent inducer of SSTR2 expression”. The “effect on cell growth” value in experiment [6] is recorded as “growth inhibition by promoting cell cycle arrest”. In addition, the “effect of VAC pretreatment on the efficacy of ^177Lu-DOTA-EB-TATE” value in experiment [7] and in experiment [11] was “did not improve the efficacy” throughout. Further, the “increase in H3ac at the SSTR2 promoter” value in [8] (p<0.001) is listed as 2.8 fold; in experiment [9] it was 1.9 fold. Moreover, the results for the “increase in H4ac at the SSTR2 promoter” value in experiment [8] (p<0.01) and in experiment [9] were 2.7 fold and 2.9 fold, respectively. In experiment [10], the “global histone acetylation at the protein level” value is “increase in H3ac and H4ac”.

On to `Nc1ncn([C@H]2C[C@H](O)[C@@H](CO)O2)c(=O)n1` [decitabine], for which the “effect of decitabine treatment on the uptake of ^86Y-DOTA-EB-TATE” value in experiment [4] (FTC133 and AR42J subcutaneous mice models, decitabine 1 mg/kg intraperitoneal daily for 10 days, PET scans) is recorded as “did not improve the uptake”. The “effect on the uptake of ^86Y-DOTA-EB-TATE within the tumor and normal tissues in comparison with control mice” value in [4] was “Neither VAC nor DEC treatment resulted in any significant difference”.
